ChEMBL document CHEMBL1157539, “Thousands of chemical starting points for antimalarial lead identification” (Nature, 2010)

system: Plasmodium falciparum; test: GSK_TCMDC: Inhibition of Plasmodium falciparum 3D7 in whole erythrocytes, using parasite LDH activity as an index of growth.; format: functional, organism-based; conditions: Plasmodium falciparum, 3D7

Row | SMILES | XC50 [nM]
1 | Cc1ccc(CC(C)NCC(O)c2cccc([N+](=O)[O-])c2)cc1 (stereo not given) | 761
2 | CC(Cc1ccc(CNC(=O)NCc2ccc(CC(C)NCCc3cccc(Cl)c3)cc2)cc1)NCCc1cccc(Cl)c1 (stereo not given) | 685
3 | Cc1ccc(C(=O)Nc2ccc(C)c(OC3CCN(Cc4ccco4)C3)c2)cc1 (stereo not given) | 966
4 | FC(F)(F)c1ccc2[nH]c(-c3ccc(-c4cccc(CNCc5ccccc5)c4)cc3)nc2c1 | 222
5 | NC(=O)COc1cccc2c1CCN(CCN1CCC(NC(=O)c3ccc(-c4ccc(Cl)cc4)cc3)CC1)C2 | 841
6 | Fc1cccc(COc2ccc(Nc3ncnc4sc(C#CCNC5CCCC5)cc34)cc2Cl)c1 | 782
7 | O=C(Nc1ccc(Cl)cc1)c1cc(Cl)cc2nc(C(F)(F)F)[nH]c12 | 131
8 | CC(Sc1nnc(-c2cccs2)[nH]1)C(=O)c1c[nH]c2ccccc12 (stereo not given) | 1800
9 | O=C1OC2(CN1CC1CCN(Cc3ccc(-n4ccnc4)cc3)C1)c1ccccc1-c1ccccc12 (stereo not given) | 983
10 | COc1ccc(CNC(=O)C2Cc3ccccc3CN2Cc2ccc3ccccc3c2)cc1 (stereo not given) | 1100
11 | Oc1ccc(Cl)cc1CN1CCC(CCOC(c2ccccc2)c2ccccc2)CC1 | 649
12 | CC(Cc1ccc(NC(=O)c2ccc(CC(C)NCc3ccc(Cl)cc3)cc2)cc1)NCCc1cccc(Cl)c1 (stereo not given) | 450
13 | CON=Cc1sc(CNCCCN=c2cc(O)c3ccccc3[nH]2)c(C)c1Br | 962
14 | Cc1c(-c2ccc3c(c2)C(NCCCN2CCCCC2)CC3)cnc(N)c1C (stereo not given) | 1110
15 | N#Cc1ccc(CNCCCCCCNCc2ccc(C#N)c3ccccc23)c2ccccc12 | 610
16 | COc1cccc(CC(C)NCC(O)c2cccc(Cl)c2)c1 (stereo not given) | 1270
17 | CN1CCC(NC(=O)c2cc(Oc3ccc4c(c3)CCN4C(=O)Nc3cccc(C(F)(F)F)c3)ccn2)CC1 | 930
18 | COc1ccc(C2C(C(=O)Nc3cc(Cl)c(OC)cc3OC)c3ccccc3C(=O)N2C)cc1 (stereo not given) | 820
19 | c1ccc(Oc2ccc(Nc3ccnc4cc(-c5ccc(CN6CCOCC6)o5)ccc34)cc2)nc1 | 906
20 | Cc1sc(CNCCCNc2cc(=O)c3ccccc3[nH]2)c(C(F)(F)F)c1C | 734

Row | SMILES | XC50 [nM]
21 | Cc1cccc(Cn2c(Cc3ccccc3)nnc2Sc2ccc([N+](=O)[O-])c(C#N)c2)c1 | 1140
22 | CC(C)C[C@@H](/C=N/N1CC(=O)NC1=O)NC(=O)[C@H](CC(C)C)NC(=O)c1ccc(OCCN2CCOCC2)cc1 | 270
23 | Cc1cc(NC(=O)NCCN2CCC(NC(=O)c3cccc(Br)c3)C2)c2ccccc2n1 (stereo not given) | 553
24 | CN1CCN(CCCN(Cc2cccc(-c3cccc(CNCCc4ccccc4)c3)c2)C(=O)Nc2ccccc2)CC1 | 579
25 | CCN(CC)c1ccc(C(c2ccc(N(CC)CC)cc2)c2ccc([N+](=O)[O-])cc2)cc1 | 946
26 | CC1CCc2c(C(=O)N3CCc4ccccc4C3)csc2C1 (stereo not given) | 782
27 | CC1CC(NCCCNc2cc(=O)c3ccccc3[nH]2)c2c1cc(Cl)c(Cl)c2Cl (stereo not given) | 837
28 | Cc1oc(-c2ccccc2)nc1CCOc1ccc(C[C@H](Nc2ccccc2C(=O)c2ccccc2)C(=O)NCc2ccccn2)cc1 | 884
29 | CC1(C)N=C(N)N=C(N)N1OCc1ccc2ccccc2c1 | 3.2
30 | Cc1ccc(C(C)C)c(Oc2ccc3nc(N)nc(N)c3c2)c1 | 10.2
31 | COc1ccc(C=NNc2nc3ccccc3[nH]2)cc1O | 915
32 | CCC(C)NCCC(c1ccccc1)c1ccccc1O (stereo not given) | 788
33 | C=CCOc1cccc2c1CCN(CCN1CCC(NC(=O)c3ccc(-c4ccc(Cl)cc4)cc3)CC1)C2 | 673
34 | Cc1cc(NC2CCCC2)nc(Nc2ccccc2)n1 | 985
35 | Cc1cccc2nc(-c3ccc(-c4cccc(CN5CC(C)OC(C)C5)c4)s3)[nH]c12 (stereo not given) | 757
36 | COc1ccc2nccc(N3CCC(NCCNCc4ccc5c(n4)NC(=O)CS5)C3)c2n1 (stereo not given) | 694
37 | Clc1ccc(Nc2nc(NCc3ccccc3)nc(N/N=C/c3ccccn3)n2)cc1 | 776
38 | N#Cc1cccc(NC(=O)Nc2ccc(-c3cccc(-c4nc5cc(F)ccc5[nH]4)c3)cc2)c1 | 275
39 | Cc1cc(C)c2oc(-c3cccc(NC(=O)c4ccc([N+](=O)[O-])o4)c3C)nc2c1 | 1150
40 | Cc1cc(NC(=O)Nc2ccc3nccc(N4CCN(C)CC4)c3c2)ccc1Br | 92.7
